{
  "source": "paper PMC6862253",
  "about": "“Synthesis and Evaluation of Anticancer Activity of New 4-Acyloxy Derivatives of Robustic Acid” (International Journal of Molecular Sciences, 2019)",
  "key": {"[1]": {"system": "human leukemic cells HL-60", "assay": "MTS anti-proliferative assay, HL-60", "assay_type": "cell-based", "settings": "mean ± SD", "method": "(§1) The MTS (3-(4,5-dimethylthiazole-2-yl)-5-(3-carboxymethoxyphenyl)-2-(4-sulfophenyl)-2H- tetrazolium) (Promega, Madison, WI, USA) assay was used to determine the IC50 value for all compounds, according to [26]. We used a panel of five human carcinoma cell lines and two normal cells including HL-60, A549, SMMC-7721, HepG2, Hela, LO2 and BEAS-2B. Cells were seeded in 96-well plates at a density of 3 × 10^3–1.5 × 10^4 cells/well in 100 μL medium (DMEM or RMPI1640) and incubated for 12–24 h at 37 °C. Subsequently, cells were exposed to drugs in an additional 100 μL medium and were further incubated at 37 °C for 48 h. In brief, 100 μL MTS reagent supplement with 100 μL medium was added directly to the wells and cells were incubated at 37 °C for a minimum of 2 h. Colorimetric measurements were recorded at 492 nm. Background absorbance was corrected using triplicate sets of wells[…] containing medium only (no cells), and MTS reagent was added per experimental well. Each experiment was performed at least three times, and values in results are represented as mean ± SD."}, "[2]": {"system": "human non-small cell lung carcinoma cells A-549", "assay": "MTS anti-proliferative assay, A-549", "assay_type": "cell-based", "settings": "mean ± SD", "method": "as §1"}, "[3]": {"system": "human hepatic carcinoma cells SMMC-7721", "assay": "MTS anti-proliferative assay, SMMC-7721", "assay_type": "cell-based", "settings": "mean ± SD", "method": "as §1"}, "[4]": {"system": "human hepatocellular carcinoma cells HepG2", "assay": "MTS anti-proliferative assay, HepG2", "assay_type": "cell-based", "settings": "mean ± SD", "method": "as §1"}, "[5]": {"system": "human cervical carcinoma cells Hela", "assay": "MTS anti-proliferative assay, Hela", "assay_type": "cell-based", "settings": "48 h, mean ± SD", "method": "as §1"}, "[6]": {"system": "human normal liver cells LO2", "assay": "MTS cytotoxicity assay, normal LO2 cells", "assay_type": "cell-based", "settings": "mean ± SD", "method": "as §1"}, "[7]": {"system": "human normal lung epithelial cells BEAS-2B", "assay": "MTS cytotoxicity assay, normal BEAS-2B cells", "assay_type": "cell-based", "settings": "48 h, mean ± SD", "method": "as §1"}, "[8]": {"target": "T1, DNA topoisomerase I (Topo I) (Bos taurus, UniProt F1MN93)", "T1 construct": "purchased Takara Bio Inc", "T1 sequence (F1MN93 1-767)": "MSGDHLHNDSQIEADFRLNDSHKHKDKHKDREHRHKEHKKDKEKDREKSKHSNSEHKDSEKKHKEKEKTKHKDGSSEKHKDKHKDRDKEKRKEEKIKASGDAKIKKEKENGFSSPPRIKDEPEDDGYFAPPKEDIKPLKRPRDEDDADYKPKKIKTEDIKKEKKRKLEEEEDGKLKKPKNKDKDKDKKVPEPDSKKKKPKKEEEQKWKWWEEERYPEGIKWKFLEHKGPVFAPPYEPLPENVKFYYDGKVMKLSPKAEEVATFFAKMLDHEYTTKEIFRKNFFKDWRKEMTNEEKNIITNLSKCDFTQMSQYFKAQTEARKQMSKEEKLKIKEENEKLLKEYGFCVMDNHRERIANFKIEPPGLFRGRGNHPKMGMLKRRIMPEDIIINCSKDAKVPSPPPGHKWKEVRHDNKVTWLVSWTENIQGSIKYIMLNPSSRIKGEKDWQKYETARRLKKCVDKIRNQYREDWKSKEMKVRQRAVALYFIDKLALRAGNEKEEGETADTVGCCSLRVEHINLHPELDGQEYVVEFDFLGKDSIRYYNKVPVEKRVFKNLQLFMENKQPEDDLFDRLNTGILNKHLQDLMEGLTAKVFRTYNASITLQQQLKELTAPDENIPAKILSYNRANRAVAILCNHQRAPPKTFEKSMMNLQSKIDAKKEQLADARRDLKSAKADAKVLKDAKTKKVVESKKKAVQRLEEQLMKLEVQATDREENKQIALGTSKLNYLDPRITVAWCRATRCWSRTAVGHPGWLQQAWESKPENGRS", "assay": "Topo I inhibitory activity, supercoiled DNA unwinding, agarose gel", "assay_type": "biochemical", "from_the_text": "DNA Topo I is an important enzyme in all living organisms, and it participates in many cellular metabolic processes, such as replication, transcription, recombination, and repair. DNA Topo I has been established as a molecular target of anticancer drugs. A combined study of synthesis and docking for the anti-cancer activity of novel coumarins concluded that coumarin derivatives are potent cytotoxic agents. […] Currently, discovering novel non-camptothecin inhibitors for DNA Topo I has become an important area of research. Thus, a DNA Topo I inhibitory activity assay was also carried out using the supercoiled DNA unwinding method in this study. […] Therefore, compounds 2d, 2g, and 2i were selected for further quantitative investigation (depicted in Figure 5B). […] This correlates well with the cytotoxicity to HL-60, A-549, and SMMC-7721 cells. Thus, we infer that the anti-proliferative activity of 4-acyloxy derivatives of RA to these three cells may be related to Topo I. Supercoiled […] DNA was used as a substrate to determine the Topo I catalytic activity. Commercial samples of Topo I and pBR322 were obtained from Takara Bio Inc. The buffer solutions were prepared using 500 mM KAc, 200 mM Tris-Ac, 100 mM Mg(Ac)2, and 1 mg/mL BSA. The procedure used for determination of enzyme inhibitory activity was similar to one reported by Xu et al.."}},
  "data": [
    {"molecule": "CC[C@@]1(O)C(=O)OCc2c1cc1n(c2=O)Cc2cc3ccccc3nc2-1", "note": "[CPT, camptothecin]", "values": [
      {"measurement": "IC50", "setting": "[1]; Homo sapiens, HL-60, 48 h", "value": "12.2 ± 1.06", "unit": "µM"},
      {"measurement": "IC50", "setting": "[2]; Homo sapiens, A549, 48 h", "value": "15.3 ± 1.22", "unit": "µM"},
      {"measurement": "IC50", "setting": "[3]; Homo sapiens, SMMC-7721, 48 h", "value": "18.9 ± 4.12", "unit": "µM"},
      {"measurement": "IC50", "setting": "[4]; Homo sapiens, HepG2, 48 h", "value": "1.3 ± 0.62", "unit": "µM"},
      {"measurement": "IC50", "setting": "[5]; Homo sapiens, HeLa", "value": "0.5 ± 0.08", "unit": "µM"},
      {"measurement": "IC50", "setting": "[6]; Homo sapiens, L02, 48 h", "value": "0.03 ± 0.002", "unit": "µM"},
      {"measurement": "IC50", "setting": "[7]; Homo sapiens, BEAS-2B", "value": "2.16 ± 0.47", "unit": "µM"}
    ]},
    {"molecule": "COC1=c2c(OC(=O)c3ccccc3)c(-c3ccc(OC)cc3)c(=O)oc2=CC2OC(C)(C)C=CC12", "note": "(centres unmarked) [Compound 2a, 4-O-Benzoyl-robustic acid]", "values": [
      {"measurement": "melting point", "value": "266.4 to 273.4", "unit": "°C"}
    ]},
    {"molecule": "COC1=c2c(OC(=O)c3ccc(C(F)(F)F)cc3)c(-c3ccc(OC)cc3)c(=O)oc2=CC2OC(C)(C)C=CC12", "note": "(centres unmarked) [Compound 2d, 4-O-(p-Trifluoromethylbenzoyl)robustic acid]", "values": [
      {"measurement": "melting point", "value": "225.6 to 228.5", "unit": "°C"}
    ]},
    {"molecule": "COC1=c2c(OC(=O)c3cccs3)c(-c3ccc(OC)cc3)c(=O)oc2=CC2OC(C)(C)C=CC12", "note": "(centres unmarked) [Compound 2e, 4-O-Thenoyl robustic acid]", "values": [
      {"measurement": "melting point", "value": "171.5 to 182.3", "unit": "°C"}
    ]},
    {"molecule": "COc1ccc(-c2c(OC(=O)c3ccc(F)cc3)c3c(OC)c4c(cc3oc2=O)OC(C)(C)C=C4)cc1", "note": "[Compound 2f, 4-O-(p-Fluorobenzoyl)robustic acid]", "values": [
      {"measurement": "IC50", "setting": "[1]; Homo sapiens, HL-60, 48 h", "value": "> 100", "unit": "µM"},
      {"measurement": "IC50", "setting": "[2]; Homo sapiens, A549, 48 h", "value": "> 100", "unit": "µM"},
      {"measurement": "IC50", "setting": "[3]; Homo sapiens, SMMC-7721, 48 h", "value": "66.2 ± 5.7", "unit": "µM"},
      {"measurement": "IC50", "setting": "[4]; Homo sapiens, HepG2, 48 h", "value": "87.3 ± 2.14", "unit": "µM"},
      {"measurement": "IC50", "setting": "[5]; Homo sapiens, HeLa", "value": "65.1 ± 1.27", "unit": "µM"},
      {"measurement": "IC50", "setting": "[6]; Homo sapiens, L02, 48 h", "value": "> 100", "unit": "µM"},
      {"measurement": "IC50", "setting": "[7]; Homo sapiens, BEAS-2B", "value": "> 100", "unit": "µM"},
      {"measurement": "Topo I inhibitory activity", "setting": "[8]; gel electrophoresis", "value": "moderate inhibitory activities"},
      {"measurement": "melting point", "value": "236.8 to 239.6", "unit": "°C"}
    ]},
    {"molecule": "COC1=c2c(OC(=O)c3ccc([N+](=O)[O-])cc3)c(-c3ccc(OC)cc3)c(=O)oc2=CC2OC(C)(C)C=CC12", "note": "(centres unmarked) [Compound 2g, 4-O-(p-Nitrobenzoyl)robustic acid]", "values": [
      {"measurement": "melting point", "value": "239.5 to 241.9", "unit": "°C"}
    ]},
    {"molecule": "CCc1ccc(C(=O)Oc2c(-c3ccc(OC)cc3)c(=O)oc3c2=C(OC)C2C=CC(C)(C)OC2C=3)cc1", "note": "(centres unmarked) [Compound 2h, 4-O-(p-Ethylbenzoyl)robustic acid]", "values": [
      {"measurement": "melting point", "value": "246.9 to 250.2", "unit": "°C"}
    ]},
    {"molecule": "COC1=c2c(OC(=O)c3ccc(Br)cc3F)c(-c3ccc(OC)cc3)c(=O)oc2=CC2OC(C)(C)C=CC12", "note": "(centres unmarked) [Compound 2i, 4-O-(4-Bromo-2-fluorobenzoyl) robustic acid]", "values": [
      {"measurement": "melting point", "value": "250.8 to 251.9", "unit": "°C"}
    ]},
    {"molecule": "COC1=c2c(OC(C)=O)c(-c3ccc(OC)cc3)c(=O)oc2=CC2OC(C)(C)C=CC12", "note": "(centres unmarked) [Compound 2j, 4-O-Acetylrobustic acid]", "values": [
      {"measurement": "melting point", "value": "189.9 to 192.1", "unit": "°C"}
    ]},
    {"molecule": "COc1ccc(-c2c(O)c3c(OC)c4c(cc3oc2=O)OC(C)(C)C=C4)cc1", "note": "[RA, robustic acid]", "values": [
      {"measurement": "IC50", "setting": "[1]; Homo sapiens, HL-60, 48 h", "value": "> 100", "unit": "µM"},
      {"measurement": "IC50", "setting": "[2]; Homo sapiens, A549, 48 h", "value": "> 100", "unit": "µM"},
      {"measurement": "IC50", "setting": "[3]; Homo sapiens, SMMC-7721, 48 h", "value": "> 100", "unit": "µM"},
      {"measurement": "IC50", "setting": "[4]; Homo sapiens, HepG2, 48 h", "value": "> 100", "unit": "µM"},
      {"measurement": "IC50", "setting": "[5]; Homo sapiens, HeLa", "value": "> 100", "unit": "µM"},
      {"measurement": "IC50", "setting": "[6]; Homo sapiens, L02, 48 h", "value": "> 100", "unit": "µM"},
      {"measurement": "IC50", "setting": "[7]; Homo sapiens, BEAS-2B", "value": "> 100", "unit": "µM"},
      {"measurement": "Topo I inhibitory activity", "setting": "[8]; concentrations lower than 10 mM", "value": "no inhibitory activity was found"}
    ]},
    {"molecule": "N.N.[Cl][Pt][Cl]", "note": "[cisplatin]", "values": [
      {"measurement": "IC50", "setting": "[1]; 48 h", "value": "14.2 ± 0.56", "unit": "µM"},
      {"measurement": "IC50", "setting": "[2]; 48 h", "value": "25.4 ± 1.06", "unit": "µM"},
      {"measurement": "IC50", "setting": "[3]; 48 h", "value": "1.32 ± 0.97", "unit": "µM"},
      {"measurement": "IC50", "setting": "[4]; 48 h", "value": "10.6 ± 1.4", "unit": "µM"},
      {"measurement": "IC50", "setting": "[5]", "value": "5.83 ± 0.14", "unit": "µM"},
      {"measurement": "IC50", "setting": "[6]; 48 h", "value": "< 0.008", "unit": "µM"},
      {"measurement": "IC50", "setting": "[7]", "value": "57.7 ± 3.1", "unit": "µM"}
    ]}
  ]
}
